These results are taken from patent publication US12344597B2, “Alkoxy-substituted pyridinyl derivatives as LPA1 receptor antagonists and their use in the treatment of fibrosis” (IDORSIA PHARMACEUTICALS LTD, priority 2018, dated 2025).

Chain of human LPA1 receptor (Q92633 whole entry, the tested form may be a part): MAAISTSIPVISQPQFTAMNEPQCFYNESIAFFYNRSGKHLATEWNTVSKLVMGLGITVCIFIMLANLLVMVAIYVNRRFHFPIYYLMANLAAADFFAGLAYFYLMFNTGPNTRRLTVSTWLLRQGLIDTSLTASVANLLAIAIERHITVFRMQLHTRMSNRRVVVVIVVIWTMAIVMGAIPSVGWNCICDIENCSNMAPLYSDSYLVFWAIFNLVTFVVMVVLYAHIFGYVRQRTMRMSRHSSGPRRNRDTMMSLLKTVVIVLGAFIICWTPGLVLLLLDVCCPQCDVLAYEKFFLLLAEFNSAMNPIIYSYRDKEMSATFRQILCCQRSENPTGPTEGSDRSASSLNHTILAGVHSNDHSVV

This assay concerns the target human LPA1 receptor (Homo sapiens (Human), UniProt Q92633). Description: Beta-arrestin recruitment assay to determine IC50 values for human LPAR1. The conditions noted are these: antagonist mode, Tango EDG2-bla U2OS cells, LPA 18:1 500 nM final. Format: cell-based. Summed up: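 Tango EDG2-bla U2OS cells: LPA-driven beta-arrestin/TEV protease recruitment releases Gal4-VP16, inducing beta-lactamase reporter read with live-cell substrate. Cells seeded 20 h at 37 °C beforehand. IC50 is antagonist concentration inhibiting 50% of maximal response.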
As usually defined, the IC50 is the concentration at which inhibition is half-maximal. Low values mean greater potency in that assay, high ones weaker potency in that assay. Compound `Cc1ccc(NC(=O)C2(c3ccccc3C(C)C)CN(S(=O)(=O)CCCCC(=O)O)C2)c(OC(F)F)n1` [Ex 13-19, 5-((3-((2-(difluoromethoxy)-6-methylpyridin-3-yl)carbamoyl)-3-(2-isopropylphenyl)azetidin-1-yl)sulfonyl)pentanoic acid] showed an IC50 of 55 nM. The compound `COC(=O)/C=C/S(=O)(=O)N1CC(C(=O)Nc2ccc(C)nc2OC(F)F)(c2ccccc2C(C)C)C1` [Ex 13-20, methyl (E)-3-((3-((2-(difluoromethoxy)-6-methylpyridin-3-yl)carbamoyl)-3-(2-isopropylphenyl)azetidin-1-yl)sulfonyl)acrylate] showed an IC50 of 18 nM. `Cc1ccc(NC(=O)C2(c3ccccc3C(C)C)CN(S(=O)(=O)/C=C/C(=O)O)C2)c(OC(F)F)n1` [Ex 13-21, (E)-3-((3-((2-(difluoromethoxy)-6-methylpyridin-3-yl)carbamoyl)-3-(2-isopropylphenyl)azetidin-1-yl)sulfonyl)acrylic acid] yielded an IC50 of 14 nM. On to `COC(=O)c1[nH]ncc1S(=O)(=O)N1CC(C(=O)Nc2ccc(C)nc2OC(F)F)(c2ccccc2C(C)C)C1` [Ex 13-22, methyl 4-((3-((2-(difluoromethoxy)-6-methylpyridin-3-yl)carbamoyl)-3-(2-isopropylphenyl)azetidin-1-yl)sulfonyl)-1H-pyrazole-5-carboxylate], for which the IC50 came out at 270 nM. In turn, `Cc1ccc(NC(=O)C2(c3ccccc3C(C)C)CN(S(=O)(=O)c3cn[nH]c3C(=O)O)C2)c(OC(F)F)n1` [Ex 13-23, 4-((3-((2-(difluoromethoxy)-6-methylpyridin-3-yl)carbamoyl)-3-(2-isopropylphenyl)azetidin-1-yl)sulfonyl)-1H-pyrazole-5-carboxylic acid] yielded a half-inhibitory concentration (IC50) of 100 nM.

For `CCOC(=O)c1cn[nH]c1S(=O)(=O)N1CC(C(=O)Nc2ccc(C)nc2OC(F)F)(c2ccccc2C(C)C)C1` [Ex 13-24, ethyl 5-((3-((2-(difluoromethoxy)-6-methylpyridin-3-yl)carbamoyl)-3-(2-isopropylphenyl)azetidin-1-yl)sulfonyl)-1H-pyrazole-4-carboxylate], half-maximal inhibition (IC50) was put at 750 nM. On to `Cc1ccc(NC(=O)C2(c3ccccc3C(C)C)CN(S(=O)(=O)c3[nH]ncc3C(=O)O)C2)c(OC(F)F)n1` [Ex 13-25, 5-((3-((2-(difluoromethoxy)-6-methylpyridin-3-yl)carbamoyl)-3-(2-isopropylphenyl)azetidin-1-yl)sulfonyl)-1H-pyrazole-4-carboxylic acid], for which the IC50 stood at 400 nM. As to `COC(=O)c1cc(S(=O)(=O)N2CC(C(=O)Nc3ccc(C)nc3OC(F)F)(c3ccccc3C(C)C)C2)on1` [Ex 13-26, methyl 5-((3-((2-(difluoromethoxy)-6-methylpyridin-3-yl)carbamoyl)-3-(2-isopropylphenyl)azetidin-1-yl)sulfonyl)isoxazole-3-carboxylate], the half-inhibitory concentration (IC50) was 25 nM. Compound `COC(CC(=O)O)S(=O)(=O)N1CC(C(=O)Nc2ccc(C)nc2OC(F)F)(c2ccccc2C(C)C)C1` (stereo not drawn) [Ex 13-27, 3-((3-((2-(difluoromethoxy)-6-methylpyridin-3-yl)carbamoyl)-3-(2-isopropylphenyl)azetidin-1-yl)sulfonyl)-3-methoxypropanoic acid] displayed an IC50 of 28 nM. The IC50 values of the last two compounds are within 1.5-fold of each other. In turn, `Cc1ccc(NC(=O)C2(c3ccccc3C(C)C)CN(S(=O)(=O)CCC(=O)NOCc3ccccc3)C2)c(OC(F)F)n1` [Ex 13-28, 1-((3-((benzyloxy)amino)-3-oxopropyl)sulfonyl)-N-(2-(difluoromethoxy)-6-methylpyridin-3-yl)-3-(2-isopropylphenyl)azetidine-3-carboxamide] registered an IC50 of 110 nM. `Cc1ccc(NC(=O)C2(c3ccccc3C(C)C)CN(S(=O)(=O)CCC(=O)NO)C2)c(OC(F)F)n1` [Ex 13-29, N-(2-(difluoromethoxy)-6-methylpyridin-3-yl)-1-((3-(hydroxyamino)-3-oxopropyl)sulfonyl)-3-(2-isopropylphenyl)azetidine-3-carboxamide]: 10 nM corresponded to half-maximal inhibition (IC50). In turn, `Cc1ccc(NC(=O)C2(c3ccccc3C(C)C)CN(S(=O)(=O)CCCS(=O)(=O)O)C2)c(OC(F)F)n1` [Ex 13-30, 3-((3-((2-(difluoromethoxy)-6-methylpyridin-3-yl)carbamoyl)-3-(2-isopropylphenyl)azetidin-1-yl)sulfonyl)propane-1-sulfonic acid] registered an IC50 of 49 nM. With `Cc1ccc(NC(=O)C2(c3ccccc3C(C)C)CN(C(=O)OCC(=O)O)C2)c(OC(F)F)n1` [Ex 14-1, 2-((3-((2-(difluoromethoxy)-6-methylpyridin-3-yl)carbamoyl)-3-(2-isopropylphenyl)azetidine-1-carbonyl)oxy)acetic acid] the figure was 12 nM; with `Cc1ccc(NC(=O)C2(c3ccccc3C(C)C)CCN(C(=O)OCC(=O)O)CC2)c(OC(F)F)n1` [Ex 14-2, 2-((4-((2-(difluoromethoxy)-6-methylpyridin-3-yl)carbamoyl)-4-(2-isopropylphenyl)piperidine-1-carbonyl)oxy)acetic acid], 4.3 nM. `Cc1ccc(NC(=O)C2(c3ccccc3C(C)C)CCN(C(=O)OCC(=O)O)CC2)c(OC(F)F)n1` [Ex 14-3, 2-((4-((2-(difluoromethoxy)-6-methylpyridin-3-yl)carbamoyl)-4-(2-isopropylphenyl)piperidine-1-carbonyl)oxy)acetic acid]: the half-inhibitory concentration (IC50) was 6 nM. With `Cc1ccc(NC(=O)C2(c3ccccc3C(C)C)CN(C(=O)O[C@@H](C)C(=O)O)C2)c(OC(F)F)n1` [Ex 14-4, (S)-2-((3-((2-(difluoromethoxy)-6-methylpyridin-3-yl)carbamoyl)-3-(2-isopropylphenyl)azetidine-1-carbonyl)oxy)propanoic acid] the figure was 16 nM; with `Cc1ccc(NC(=O)C2(c3ccccc3C(C)C)CN(C(=O)O[C@H](C)C(=O)O)C2)c(OC(F)F)n1` [Ex 14-5, (R)-2-((3-((2-(difluoromethoxy)-6-methylpyridin-3-yl)carbamoyl)-3-(2-isopropylphenyl)azetidine-1-carbonyl)oxy)propanoic acid], 9 nM. Turning to `COC(=O)C(C)(C)OC(=O)N1CC(C(=O)Nc2ccc(C)nc2OC(F)F)(c2ccccc2C(C)C)C1` [Ex 14-6, 1-methoxy-2-methyl-1-oxopropan-2-yl 3-((2-(difluoromethoxy)-6-methylpyridin-3-yl)carbamoyl)-3-(2-isopropylphenyl)azetidine-1-carboxylate], it took 143 nM to reach half-maximal inhibition (IC50). Consider `COC(=O)C1(OC(=O)N2CC(C(=O)Nc3ccc(C)nc3OC(F)F)(c3ccccc3C(C)C)C2)CC1` [Ex 14-7, 1-(methoxycarbonyl)cyclopropyl 3-((2-(difluoromethoxy)-6-methylpyridin-3-yl)carbamoyl)-3-(2-isopropylphenyl)azetidine-1-carboxylate], for which the IC50 came out at 79 nM. Turning to `Cc1ccc(NC(=O)C2(c3ccccc3C(C)C)CN(C(=O)OC3(C(=O)O)CC3)C2)c(OC(F)F)n1` [Ex 14-8, 1-((3-((2-(difluoromethoxy)-6-methylpyridin-3-yl)carbamoyl)-3-(2-isopropylphenyl)azetidine-1-carbonyl)oxy)cyclopropane-1-carboxylic acid], the IC50 was 14 nM. With `COC(=O)C(C)(C)COC(=O)N1CC(C(=O)Nc2ccc(C)nc2OC(F)F)(c2ccccc2C(C)C)C1` [Ex 14-9, 3-methoxy-2,2-dimethyl-3-oxopropyl 3-((2-(difluoromethoxy)-6-methylpyridin-3-yl)carbamoyl)-3-(2-isopropylphenyl)azetidine-1-carboxylate] the figure was 42 nM.
